Read-outs that look alike come from different tables or passages of the source.
What was measured:
U87MG cells [1] = test: Cell proliferation assay in U87MG cells (direct cell counting); format: cell-based, human; conditions: for IC50: 3000 cells/well, incubated 4 days, viable cells directly counted, read-out: IC50 (half inhibitory concentration) against U87MG
Procedure: Apart from the imaging studies, we then investigated anti-tumor activities of all F16 related compounds by studying their antiproliferative effects in U87MG and MDA-MB-231 cell lines. After exposure to 5 or 10 μM of the compounds in the cancer cells for 4 days, the cell proliferative ratios to the control were measured (see FIG. 5). […] The different antiproliferative activities imply that the antitumor potency of the F16 related compounds is cell-dependent. Meanwhile, substituents in F16 and F16-TPP analogues played distinct roles, for instance, introduction of a fluorine atom in F16 barely influences activity of FF16 (P>0.05), while substitution of fluorine and methyl groups apparently impacts F16-TPP analogues in the U87MG cell line at a higher concentration of 10 μM.
(§1) To further confirm the relationship between cell uptake and antitumor activity, the half inhibitory concentrations (IC50) of these compounds against the U87MG cell line were measured. […] It should be noted that all these five compounds show minimum or even un-observable toxicity in the fibroblast cell line NIH 3T3 (IC50 all >100 μM, Table 1, FIG. 6), highlighting the treatment specificity of these mitochondrial targeted agents.
(§2) Both U87MG and NIH 3T3 cell lines at a density of 3000 cells/well were incubated in 96-well plates overnight. The culture medium was replaced with 200 μL of culture medium in which the testing compound dispersed at various concentrations (0.5-200 μM). After incubation for 4 days, the viable cell numbers were checked and directly counted under microscopy (10×). A minimum of 1 mm×1 mm area was counted from each of at least three widely separated regions of cell culture. The cell proliferation rate was calculated by the following formula: cell proliferation rate (%)=(average cell number of sample wells/average cell number of control wells×100. The intact culture medium was evaluated as a control.

NIH 3T3 cells = test: Cell proliferation assay in NIH 3T3 cells (direct cell counting); format: cell-based, mouse; conditions: NIH 3T3 fibroblasts, 3000 cells/well, incubated 4 days, viable cells directly counted, read-out: IC50 (half inhibitory concentration) against NIH 3T3
Procedure: as §1, §2

U87MG cells [2] = test: Cell uptake and localization by fluorescence microscopy in U87MG cells; format: cell-based, human; conditions: 1 hour incubation, fluorescence signal in cells/PBS buffer, n=9
Procedure: The data was obtained by calculating by the following equation: Fluorescence signal in cell lines/Fluorescence signal in PBS buffer and normalized to F16 in the U87MG cell line. n=9. Data are presented as mean±SD.
Tumor cell uptake of all F16 related compounds were studied by incubating two cancer cell lines (U87MG and MDA-MB-231) with the probes for 1 hour and then imaging was performed with a fluorescent microscope. Meanwhile, to investigate the localization of the F16 derivatives, after incubation with the probes, cells were co-stained with the commercially available dye Mitotrack, which is widely used for mitochondria staining. […] Under eGFP filter set (ξex 450/490 nm, λem 515/565 nm), no significant autofluorescence of the cells were observed, making it convenient to study the relative uptake of the probes directly by comparing their fluorescence signals.
We then investigated the uptake of all the probes in U87MG and MDA-MB-231 cells at 1 hour incubation by quantitative analysis of fluorescent signals intensity of all F16 related compounds in the cells. The cellular uptake experiments were repeated nine times, and the relative cellular uptakes ability of different probes were calculated by comparing their percentage of cellular fluorescent signals and then normalized by that of F16 (FIG. 4). […]

C[n+]1ccc(/C=C/c2c[nH]c3ccccc23)cc1.[I-] [F16, (E)-4-(1H-indol-3-ylvinyl)-N-methylpyridinium iodide, reference compound]
IC50 (U87MG cells [1]; Homo sapiens, U-87 MG, 96 h): 36.5 ± 1.1 µM
IC50 (NIH 3T3 cells; Mus musculus, NIH3T3, 96 h): ~100 µM
Relative uptake in U87MG cells, normalized to F16 (U87MG cells [2]): ~1

C[n+]1ccc(/C=C/c2c[nH]c3ccc(F)cc23)cc1.[I-] [FF16, (E)-4-(1H-5-fluro-indole-3-ylvinyl)-N-methylpyridinium iodide]
IC50 (U87MG cells [1]): 28 ± 1.2 µM
Improvement of bioactivity relative to F16 (U87MG IC50) (U87MG cells [1]; fluorine substitution in F16): ~1.3 fold
IC50 (NIH 3T3 cells): ~491 µM
Relative uptake in U87MG cells, normalized to F16 (U87MG cells [2]): ~1

— patent US20150336993A1, “MITOCHONDRIA-TARGETED THERANOSTIC AGENTS” (The Board of Trustees of the Leland Stanford Junior …, priority 2014, published 2015)
